Read-outs that look alike come from different tables or passages of the source.

As a reminder, the GI50 is the concentration giving 50% growth inhibition.

In test [1] the test system is SF-295 CNS cancer cell line. The experiment in a line: NCI in vitro screen, CNS cancer SF-295. The test is classed as cell-based. To be noted: Homo sapiens, read-out: Cytotoxicity log GI50 (converted).
Test [2] relates to SK-MEL-5 melanoma cell line. The experiment in a line: NCI in vitro screen, melanoma SK-MEL-5. The test is classed as cell-based. As to conditions: Homo sapiens, read-out: Cytotoxicity log GI50 (converted).
The test system of test [3] is U-251 CNS cancer cell line. The experiment in a line: NCI in vitro screen, CNS cancer U-251. As to conditions: Homo sapiens, read-out: Cytotoxicity log GI50 (converted). It is filed as cell-based.
Test [4] has as its system OVCAR-3 ovarian cancer cell line. The experiment in a line: NCI in vitro screen, ovarian cancer OVCAR-3. The test is classed as cell-based. To be noted: Homo sapiens, read-out: Cytotoxicity log GI50 (converted).
Test [5] deals with HCT-116 colon cancer cell line. The experiment in a line: NCI in vitro screen, colon cancer HCT-116. It is filed as cell-based. To be noted: Homo sapiens; HCT-1.16 (head); HCT-116 (footnote); read-out: Cytotoxicity log GI50 (converted).
The subject of test [6] is 786-0 renal cancer cell line. The experiment in a line: NCI in vitro screen, renal cancer 786-0. It is filed as cell-based. As to conditions: Homo sapiens, read-out: Cytotoxicity log GI50 (converted).
Test [7] deals with PC-3 prostate cancer cell line. The experiment in a line: NCI in vitro screen, prostate cancer PC-3. It is filed as cell-based. As to conditions: Homo sapiens, read-out: Cytotoxicity log GI50 (converted).
In test [8] the test system is NCI-H460 non-small cell lung cancer cell line. The experiment in a line: NCI in vitro screen, non-small cell lung cancer NCI-H460. The test is classed as cell-based. To be noted: Homo sapiens, read-out: Cytotoxicity log GI50 (converted).
Test [9] relates to MDA-MB-435 breast cancer cell line. The experiment in a line: NCI in vitro screen, breast cancer MDA-MB-435. The test is classed as cell-based. To be noted: Homo sapiens; for IC (TGI): range over four compounds and two cell lines, read-out: log TGI; for GI50: read-out: Cytotoxicity log GI50 (converted).
The test system of test [10] is NCI's 60 human tumor cell line. The experiment in a line: NCI 60 human tumor cell line in vitro screen (average / whole panel). The test is classed as cell-based. To be noted: calculated from all cell lines tested, molar concentrations, read-out: average log GI50 (converted).
Test [11] deals with HL-60(TB) leukemia cell line. The experiment in a line: cells. As to conditions: Homo sapiens; for IC (TGI): HL-60, H-60 cell line, range over four compounds, read-out: log TGI; for GI50: HL-60(TB), read-out: Cytotoxicity log GI50 (converted). The test is classed as cell-based.
The subject of the next test is NCI-H226 cell line. The experiment in a line: NCI in vitro screen, NCI-H226. It is filed as cell-based. To be noted: Homo sapiens, range over four compounds, read-out: log TGI. An excerpt: Compounds 41-51 and 53-68 were submitted to NCI and assayed in the NCI's in vitro disease-oriented antitumor screen, which involves determination of a test compound's effects on the growth of approximately 60 human tumor cell lines. See, M. R. Boyd, et al. In Cancer: Principles and Practice of Oncology Updates; De Vita, V. T., Hellman, S., Rosenberg, S. A., Eds; J. B. Lippincoft: Philadelphia, pp 1-12 (1989); and A. Monks, et al. J. Natl. Cancer Inst. 83:757 (1991). These lines include leukemia, non-small cell lung, colon, central nervous system (CNS), melanoma, ovarian, renal, prostate, and breast cancers.

The subject of test [12] is MDA-N breast cancer cell line. The experiment in a line: NCI in vitro screen, breast cancer MDA-N. It is filed as cell-based. To be noted: Homo sapiens; for IC (TGI): range over four compounds and two cell lines, read-out: log TGI; for GI50: read-out: Cytotoxicity log GI50 (converted).
The subject of test [13] is tubulin. The experiment in a line: Colchicine binding assay. Set-up: species or system bovine. As to conditions: for ICB (% Inhibition) (inhibition of colchicine binding): evaluated only when polymerization IC50 ≤ 1 μM, 5.0 μM inhibitor, 5.0 μM [3H]colchicine, 1.0 μM tubulin. The protocol:
Electrophoretically homogeneous bovine brain tubulin was purified as described in E. Hamel, et al. Biochemistry 23:4173 (1984). Combretastatin A-4 was a generous gift of Dr. G. R Pettit, Arizona State University.
Incubation was for 20 min at 37° C. Each reaction mixture was filtered under reduced vacuum through a stack of two DEAE-cellulose paper filters, washed with water, and radioactivity quantitated in a liquid scintillation counter.
[…]. with 36' vs. 33'-35', and with 46' vs. 43'-45').

The test system of test [14] is central nervous system, lung, ovarian, colon, and renal cancers and melanoma and leukemia cell lines. The experiment in a line: Cytotoxicity of isolated flavonol in panels of tumor cell lines. To be noted: in vitro. The test is classed as cell-based. The text has this: In the course of this groups search for novel plant-derived potent cytotoxic agents that are active against slow-growing solid tumors, we have isolated several flavonols as antitumor principles from a phytochemically and biologically heretofore uninvestigated plant, Polanisia dodecandra. […]

Test [15] has as its system tubulin. The experiment in a line: Tubulin polymerization assay. It is filed as biochemical, bovine. The protocol:
Electrophoretically homogeneous bovine brain tubulin was purified as described in E. Hamel, et al. Biochemistry 23:4173 (1984).
The tubulin polymerization assay was performed as described in S. Kuo, et al. J. Med. Chem. 36:1146 (1993); L. Li, et al. J. Med. Chem. 37:1126 (1994); and L. Li J. Med. Chem. 37:3400 (1994). In brief, tubulin at 1.2 mg/ml (12 μM) was preincubated for 15 min at 26° C. in a 0.24-ml volume of 0.8 M monosodium glutamate (pH 6.6 with NaOH in a 2 M stock solution) with varying drug concentrations. The drug stock solutions were in DMSO, and the final solvent concentration was 4 % (v/v). All concentrations are in terms of the final reaction volume (0.25 ml). The reaction mixtures were chilled on ice, and 10 μl of 10 mM GTP was added to each reaction mixture. Samples were transferred to cuvettes held at 0° C. by an electronic temperature controller in Gilford spectrophotometers. Baselines were established at 350 nm, and polymerization initiated by a temperature jump to 26° C. The jump took about 50 sec to complete. After 20 min, turbidity readings were recorded, and the temperature controller was set to 0C. When depolymerization was complete, turbidity readings were again recorded. […] IC50 values were obtained graphically from inhibition of polymerization by different drug concentrations.
Electrophoretically, homogeneous bovine brain tubulin was purified as described in Example 6.
The tubulin polymerization assay was performed as described in Example 6.

As to `COc1cccc(-c2cc(=O)c3cccnc3[nH]2)c1` [Compound 44], the GI50 in test [1] was 52.5 nM; in test [2], 53.7 nM; in test [3] it was 55 nM; in test [4] it was 55 nM; in test [5] it was 36.3 nM; in test [6] it was 61.7 nM. Moreover, the concentration for 50% growth inhibition (GI50) is 93.3 nM in test [7]; 91.2 nM in test [8]; less than 10 nM in test [9]; 135 nM in test [10]; 16.2 nM in [11]; less than 10 nM in [12]. In addition, the IC (TGI) is 21.4 to 39.8 nM in [9], 39.8 to 64.6 nM in test [11], 75.9 to 692 nM in the test on NCI-H226 cell line and 21.4 to 39.8 nM in test [12].

`COc1cccc(-c2cc(=O)c3ccc(C)nc3[nH]2)c1` [Compound 47]: the concentration for 50% growth inhibition (GI50) in [1] was 30.2 nM; in test [2], 33.9 nM; in [3], 53.7 nM; in test [4] it was 22.4 nM; in test [5], 46.8 nM; in test [6] it was 53.7 nM. Besides, the GI50 was 33.1 nM in test [7]; 43.7 nM in test [8]; less than 10 nM in [9]; 57.5 nM in test [10]; 18.2 nM in [11]; 11 nM in test [12]. The IC (TGI) in [9] is 21.4 to 39.8 nM; in test [11], 39.8 to 64.6 nM; with NCI-H226 cell line, 75.9 to 692 nM; in test [12], 21.4 to 39.8 nM.

As to `COc1ccc(/C=C\c2cc(OC)c(OC)c(OC)c2)cc1O` [combretastatin A-4, Combretastatin A-4], the “ICB (% Inhibition) (inhibition of colchicine binding)” value with tubulin [13] came out at 91 ± 2%.

Take `COc1cccc(-c2cc(=O)c3cc(Cl)cnc3[nH]2)c1` [Compound 49]: the concentration for 50% growth inhibition (GI50) was 60.3 nM in [1]; 126 nM in test [2]; 200 nM in test [3]; 490 nM in test [4]; 120 nM in [5]; 427 nM in [6]. Besides, the concentration for 50% growth inhibition (GI50) in [7] was 138 nM; in [8], 63.1 nM; in test [9], 32.4 nM; in [10], 97.7 nM; in test [11] it was 26.9 nM; in test [12], 31.6 nM. For the same compound, the IC (TGI) lay in the range of 21.4 to 39.8 nM in [9], 39.8 to 64.6 nM in test [11], 75.9 to 692 nM in the test with NCI-H226 cell line and 21.4 to 39.8 nM in [12].

Consider `COc1cccc(-c2cc(=O)c3cc(C)cnc3[nH]2)c1` [Compound 46], for which the GI50 in [1] was 37.2 nM; in [2] it was 25.7 nM; in test [3] it was 44.7 nM; in [4], 41.7 nM; in [5], 22.4 nM; in test [6], 37.2 nM. For the same compound, the concentration for 50% growth inhibition (GI50) was 42.7 nM in test [7]; 43.7 nM in [8]; less than 10 nM in [9]; 95.5 nM in test [10]; 19.1 nM in test [11]; less than 10 nM in test [12]. Moreover, the IC (TGI) in [9] lay within 21.4 to 39.8 nM; in test [11], 39.8 to 64.6 nM; with NCI-H226 cell line, 75.9 to 692 nM; in test [12], 21.4 to 39.8 nM.

On to `COc1ccc(-c2oc3c(OC)c(OC)c(OC)c(O)c3c(=O)c2OC)cc1O` [5,3'-dihydroxy-3,6,7,8,4'-pentamethoxyflavone], for which the “inhibition of radiolabeled colchicine binding to tubulin” value in the test on tubulin [13] (equimolar concentration with colchicine, background section) is on record as 59%. For the same compound, in test [14], the GI50 values entry is “low micromolar to nanomolar concentration range”. Moreover, the IC50 in the test on tubulin [15] (earlier finding, background section, read-out: IC50, inhibitor of tubulin polymerization) stood at 830 ± 200 nM.

`COc1cc([C@@H]2c3cc4c(cc3[C@H](O)[C@H]3COC(=O)[C@H]23)OCO4)cc(OC)c1OC` [podophyllotoxin, reference compound]: the “ICB (% Inhibition) (inhibition of colchicine binding)” value in the test on tubulin [13] amounted to 76 ± 5%.

Consider `Cc1cnc2c(c1)C(=O)CC(c1ccc(Cl)cc1)=N2` [Compound 64, 2-(4'-Chlorophenyl)-6-methyl-1,8-naphthyridin-4-one], for which the GI50 in [1] is 2400 nM; in [2], 2190 nM; in [3] it was 3020 nM; in test [4], 2240 nM; in test [5], 2820 nM; in test [6], 6310 nM. The GI50 in test [7] is 1150 nM; in test [8] it was 3890 nM; in [9], 603 nM; in test [10] it was 3720 nM; in test [11] it was 2240 nM; in test [12], 562 nM. In addition, the IC50 is 2000 ± 10 nM in the test with tubulin [15] (Tables 1 and 4, read-out: ITP HC50 ± SD (Inhibition of Tubulin Polymerization)); 1500 to 9800 nM with tubulin [15] (read-out: IC50, inhibition of tubulin polymerization).

The values above are taken from patent US6229016A, “Method for treating tumors using 2-aryl-naphthyridin-4-ones” (priority 2000, dated 2001).
